Assay results from patent US10287265B2, “Enantiomers of 8-hydroxyquinoline derivatives and the synthesis thereof” (AVIDIN Co. Ltd., priority 2015, dated 2019).
“Also recorded” adds a separate entry of the source.

What was measured:
[1] = system: C57BL6/J mice; experiment: Short-term memory impairment caused by amyloid peptide aggregates (icv Aβ oligomers), Y maze test; assay type: in vivo, mouse; settings: Y maze at day 4 post Aβ
Method: (§1) In vivo experiments were carried out according to the National Institute of Health guidelines for the care and use of laboratory animals, approved by the French Ministry for Research and Technology. In the course of experiments, animals were housed at a standard temperature (22±1° C.) and in a light-controlled environment (lights on from 7 a.m. to 8 p.m.) with ad libitum access to food and water. Male C57BL/6 mice (C57BL/6J Rj, ref. SC-CJ-12w-M, Janvier, France) were housed 5 animals per cage. From one week before the start of the experiment until the end of the experiment, mice were housed individually. Animals were monitored twice-a-day by laboratory personnel (8 a.m. and 4 p.m.). In this project, young (14 weeks old) as well as aged (15-16 months old) mice were used. Experiments were carried out using 12 mice per experimental group.
Investigation of short-term working memory—Y maze test Y maze tests were carried out as previously described. Prior to testing, mice were brought to the experimental room for at least 30 min to acclimatize to experimental room conditions. The Y maze is made of opaque Plexiglas and each arm is 40 cm long, 16 cm high, 9 cm wide and positioned at equal angles. The apparatus was placed in the test room in such a way that it was brightened homogeneously with 12-15 lux in the arms as well as in the central zone. One mouse at a time was placed at the end of one arm and was allowed to move in the maze freely during a 5 min examination. Each arm entry was recorded with those entries being counted where the mouse completely placed its hind paws in the chosen arm. […] Results were calculated as the percentage of the ratio of actual detected alternations to possible alternations (defined as the number of total arm entries minus 2).
For the examination of memory impairment caused by Aβ oligomers, a mouse model developed and validated by SynAging was used. […] At day 4 post Aβ treatment, short-term memory was assessed with the Y maze test. […]
At day 4 post Aβ treatment, short-term memory was assessed with the Y maze test.

[2] = system: C57BL6/J mice; experiment: Scopolamine-induced short-term memory impairment, Y maze test; assay type: in vivo, mouse; settings: per os gavage; scopolamine 0.6 mg/kg i.p. 30 min prior to Y maze test
Method: as §1
Investigation of short-term working memory—Y maze test Y maze tests were carried out as previously described. Prior to testing, mice were brought to the experimental room for at least 30 min to acclimatize to experimental room conditions. […] Each arm entry was recorded with those entries being counted where the mouse completely placed its hind paws in the chosen arm. […] Results were calculated as the percentage of the ratio of actual detected alternations to possible alternations (defined as the number of total arm entries minus 2). […]

[3] = target: T1, human caspase 3 enzyme (Homo sapiens, UniProt P42574); experiment: Caspase 3 peptidase activity, Ac-DEVD-AMC substrate, fluorescence; assay type: biochemical
T1 construct: host or cells: E. coli
T1 sequence (P42574 29-175 limits assumed): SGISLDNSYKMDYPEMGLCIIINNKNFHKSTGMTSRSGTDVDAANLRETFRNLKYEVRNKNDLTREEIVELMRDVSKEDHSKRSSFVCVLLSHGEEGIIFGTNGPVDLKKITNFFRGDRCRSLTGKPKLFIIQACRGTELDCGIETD
T1 sequence (P42574 176-277 limits assumed): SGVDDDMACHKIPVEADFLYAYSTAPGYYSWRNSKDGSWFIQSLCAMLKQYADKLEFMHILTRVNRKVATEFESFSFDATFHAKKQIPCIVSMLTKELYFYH
Method: Throughout the experiments, human caspase 3 enzyme produced in E. coli was used as previously described (Mittl PRE, Marco S D, Krebs J F, Karanewsky D S, Priestle J P, Tomaselli K J and Grutter M G (1997) Structure of Recombinant Human CPP32 in Complex with the Tetrapeptide Acetyl-Asp-Val-Ala-Asp Fluoromethyl Ketone. J Biol Chem. 272: 6539-6547). […] After the addition of […] Ac-DEVD-AMC substrate, the reaction ran for 60 min. The amount of generated AMC (7-amino-4-methylcoumarine), which gives information about the enzyme activity, was detected by fluorescence at 360/465 nm.

[4] = system: EPO gene; experiment: Erythropoietin gene expression in hippocampus and cortex of aged animals, chronic treatment, qRT-PCR; assay type: in vivo, mouse; settings: 18-month-old C57BL/6 female mice, 20 mg/l in drinking water for four months
Method: Twenty-four 18-month-old C57BL/6 female mice (Innovo Ltd., Budapest, Hungary) were divided into two groups randomly: Group 1—untreated control, Group 2—treated with the R-enantiomer according to Example 2, administered in drinking water (20 mg/l) for four months. From both groups, 10-10 mice were sacrificed by CO2 inhalation. […]
To study gene expression, total RNA was extracted from the brain tissues with Accuzol™ Total RNA Extraction Solution (Bioneer, Daejeon, South Korea), according to the manufacturer's protocol. cDNA transcription was carried out with the High Capacity cDNA Reverse Transcription Kit (Life Technologies, Foster City, Calif., USA). Expression of the gene coding for erythropoietin, the EPO gene was determined by qRT-PCR (with HPRT gene serving as a control) with the method and instrument described in Example 33. but here, mouse-specific UPL probes (HPRT: 95, EPO: 16) and primer pairs were applied (mouse HPRT1: 5′-tcctcctcagaccgctttt-3′, mouse HPRT2: 5′-[…]-3′; mouse EPO1: 5′-[…]-3′, mouse EPO2: 5′-cttctgcacaacccatcgt-3′).

## Cc1ccnc(N[C@H](c2ccc(C(F)(F)F)cc2)c2ccc3cccnc3c2O)n1 [Example 2, 7-[(R)-[(4-Methylpyrimidin-2-yl)amino][4-(trifluoromethyl)phenyl]methyl]quinolin-8-ol]
[1]; 4 mg/kg body weight per os once daily for four days
  inhibition of short-term memory impairment caused by fibrillar aggregates of amyloid peptides: inhibited
[1]; 0.5, 2 and 4 mg/kg body weight per os once daily for four days
  inhibition of short-term memory impairment caused by fibrillar aggregates of amyloid peptides, dose dependence: in a dose-dependent manner
[2]
  inhibition of scopolamine-induced short-term memory impairment: inhibited
[3]
  inhibition of caspase-3 enzyme (concentration range in words): inhibits in micromolar concentration
[3]; applied concentration of 10 μM
  reduction of the activity of caspase 3 enzyme: 74%
[4]
  EPO gene expression in hippocampus and cortex compared to untreated control mice: resulted increased EPO gene activity in cerebral cortex and hippocampus; also recorded: induced both hippocampal and cortical EPO expression
